Legend:
S. pneumoniae D39V [1] = experiment: Bliss interaction score (quartile over a dose matrix) (fitness difference); higher = more antagonism (negative = synergy)
Procedure, shortened: (§1)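 The Bliss score subtracts expected fitness, the product of the single-drug fitness values, from observed fitness. Fitness is plate-normalised OD595 at entry into stationary phase, relative to the robust no-drug mean and capped at 1, with single-drug fitness inferred from combinations. Summaries are quartiles over technical, biological and donor/recipient replicates.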

S. aureus DSM 20231 = experiment: as above
Procedure, shortened: as §1

B. subtilis 168 [2] = experiment: as above
Procedure, shortened: as §1

S. aureus Newman = experiment: as above
Procedure, shortened: as §1

B. subtilis 168 [3] = experiment: fitness (endpoint OD595 vs no drug) (fraction); higher = more growth
Procedure, shortened: (§2)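 Fitness was defined as the optical density at the transition into stationary phase relative to the robust mean of no-drug control wells. Values were capped at 1. Cultures were started at OD595 0.01 in 384-well plates (30 µl, or 55 µl for S. pneumoniae) in TSB, LB Lennox or CY at 37 °C. OD595 was recorded every 30 min over 14 h, with the first reading subtracted as background.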

S. pneumoniae D39V [4] = experiment: as above
Procedure, shortened: as §2
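Throughout, for Bliss interaction score (quartile over a dose matrix): first quartile when negative (synergy) and third quartile when positive (antagonism).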

CN(C)c1cc(NC(=O)CNC(C)(C)C)c(O)c2c1C[C@H]1C[C@H]3[C@H](N(C)C)C(O)=C(C(N)=O)C(=O)[C@@]3(O)C(O)=C1C2=O [Tigecycline] + COc1cc(Cc2cnc(N)nc2N)cc(OC)c1OC [Trimethoprim]
Conditions	Bliss interaction score
B. subtilis 168 [2]	0.121
S. aureus DSM 20231	-0.0664
S. aureus Newman	-0.0503
S. pneumoniae D39V [1]	-0.119

fitness, B. subtilis 168 [3], one replicate
Conditions	partner 0.1 µg/mL	partner 0.125 µg/mL	partner 0.2 µg/mL	partner 0.25 µg/mL	partner 0.4 µg/mL	partner 0.5 µg/mL	partner 1 µg/mL	partner 2 µg/mL
first compound 0.039 µg/mL	0.879	0.739	0.77	–	0.58	–	0.505	0.438
first compound 0.078 µg/mL	0.896	0.727	0.754	–	0.577	–	0.455	0.408
first compound 0.125 µg/mL	–	0.898	–	0.749	–	0.694	–	–
first compound 0.156 µg/mL	0.883	0.758	0.814	–	0.546	–	0.402	0.357
first compound 0.25 µg/mL	–	0.798	–	0.546	–	0.55	–	–
first compound 0.5 µg/mL	–	0.87	–	0.695	–	0.633	–	–

fitness, B. subtilis 168 [3]
Conditions	first compound 0.039 µg/mL	first compound 0.078 µg/mL	first compound 0.156 µg/mL
partner 0.25 µg/mL	0.657	0.653	0.677
partner 0.5 µg/mL	0.567	0.532	0.529

CO/N=C(\C(=O)N[C@@H]1C(=O)N2C(C(=O)O)=C(COC(N)=O)CS[C@H]12)c1ccco1 [Cefuroxime] + C[C@H]1COc2c(N3CCN(C)CC3)c(F)cc3c(=O)c(C(=O)O)cn1c23 [Levofloxacin]
Conditions	Bliss interaction score
B. subtilis 168 [2]	-0.0899
S. aureus DSM 20231	-0.22
S. aureus Newman	-0.146
S. pneumoniae D39V [1]	0.0603

fitness, B. subtilis 168 [3], one replicate
Conditions	first compound 0.04875 µg/mL	first compound 0.0975 µg/mL	first compound 0.195 µg/mL	first compound 0.39 µg/mL	first compound 0.78 µg/mL	first compound 1.562 µg/mL	first compound 3.125 µg/mL	first compound 6.25 µg/mL
partner 0.001 µg/mL	–	–	0.284	0.15	0.156	–	–	–
partner 0.002 µg/mL	0.503	0.466	–	0.146	0.112	–	–	–
partner 0.0039 µg/mL	0.498	0.456	–	0.127	0.0881	–	–	–
partner 0.0078 µg/mL	0.432	0.397	0.334	–	–	–	–	–
partner 0.0312 µg/mL	0.055	0.0225	0.0495	–	–	0.0432	0.0263	0.0208
partner 0.0625 µg/mL	0.0626	0.0281	0.0412	–	–	0.0291	0.027	0.0162
partner 0.125 µg/mL	0.0489	0.0206	0.0412	–	–	0.0267	0.0197	0.0093

B. subtilis 168 [3], first compound 0.195 µg/mL
Conditions	fitness
partner 0.002 µg/mL	0.291
partner 0.0039 µg/mL	0.267

CO/N=C(\C(=O)N[C@@H]1C(=O)N2C(C(=O)O)=C(COC(N)=O)CS[C@H]12)c1ccco1 [Cefuroxime] + CN(C)C(=O)C(CCN1CCC(O)(c2ccc(Cl)cc2)CC1)(c1ccccc1)c1ccccc1 [Loperamide]
Conditions	Bliss interaction score
B. subtilis 168 [2]	-0.12
S. aureus DSM 20231	-0.521
S. aureus Newman	-0.0645
S. pneumoniae D39V [1]	-0.0403

fitness, B. subtilis 168 [3]
Conditions	first compound 0.04875 µg/mL	first compound 0.0975 µg/mL	first compound 0.195 µg/mL
partner 50 µg/mL	0.0325	0.0377	0.0259
partner 100 µg/mL	0.0294	0.0312	0.0385

fitness, B. subtilis 168 [3], one replicate
Conditions	first compound 1.562 µg/mL	first compound 3.125 µg/mL	first compound 6.25 µg/mL
partner 25 µg/mL	0.0361	0.0294	0.0192
partner 50 µg/mL	0.0196	0.033	0.0196
partner 100 µg/mL	0.012	0.0049	0.0099

C[C@@H]1O[C@@H]1P(=O)(O)O [Fosfomycin] + O=C1CN(/N=C/c2ccc([N+](=O)[O-])o2)C(=O)N1 [Nitrofurantoin]
Conditions	Bliss interaction score
B. subtilis 168 [2]	-0.0694
S. aureus DSM 20231	-0.0181
S. aureus Newman	0.0702
S. pneumoniae D39V [1]	0.122

fitness, S. pneumoniae D39V [4]
Conditions	partner 1.285 µg/mL	partner 2 µg/mL	partner 2.57 µg/mL	partner 4 µg/mL	partner 8 µg/mL
first compound 1.25 µg/mL	0.96	0.91	0.966	0.871	–
first compound 2.5 µg/mL	0.936	0.879	0.964	0.887	–
first compound 5 µg/mL	0.851	0.778	0.858	0.77	0.627

S. pneumoniae D39V [4], partner 5.14 µg/mL, one replicate
Conditions	fitness
first compound 1.25 µg/mL	0.923
first compound 2.5 µg/mL	0.898
first compound 5 µg/mL	0.866

C[C@H]1c2cccc(O)c2C(=O)C2=C(O)[C@]3(O)C(=O)C(C(N)=O)=C(O)[C@@H](N(C)C)[C@@H]3[C@@H](O)[C@@H]21 [Doxycycline] + CO[C@@H]1[C@@H](OC(N)=O)[C@@H](O)[C@H](Oc2ccc3c(O)c(NC(=O)c4ccc(O)c(CC=C(C)C)c4)c(=O)oc3c2C)OC1(C)C [Novobiocin]
Conditions	Bliss interaction score
B. subtilis 168 [2]	0.0575
S. aureus DSM 20231	0.0829
S. aureus Newman	0.0369
S. pneumoniae D39V [1]	0.0928

fitness, B. subtilis 168 [3]
Conditions	first compound 0.02 µg/mL	first compound 0.04 µg/mL	first compound 0.08 µg/mL
partner 0.0125 µg/mL	0.885	0.808	0.466
partner 0.025 µg/mL	0.875	0.775	0.405
partner 0.05 µg/mL	0.978	0.775	–

fitness, B. subtilis 168 [3], one replicate
Conditions	partner 0.1 µg/mL	partner 0.125 µg/mL	partner 0.2 µg/mL	partner 0.25 µg/mL	partner 0.5 µg/mL
first compound 0.02 µg/mL	≥ 1	0.861	0.979	0.963	0.623
first compound 0.04 µg/mL	0.874	0.787	0.895	0.712	0.547
first compound 0.08 µg/mL	0.675	0.341	0.71	0.103	0.0433
